The values that follow come from US8802700B2 (Vertex Pharmaceuticals Incorporated, priority 2010, dated 2014).

Where only a bound is given, the exact number is not on record here.

T1 sequence (P13569 with tags, fused parts or gaps DEL508-508): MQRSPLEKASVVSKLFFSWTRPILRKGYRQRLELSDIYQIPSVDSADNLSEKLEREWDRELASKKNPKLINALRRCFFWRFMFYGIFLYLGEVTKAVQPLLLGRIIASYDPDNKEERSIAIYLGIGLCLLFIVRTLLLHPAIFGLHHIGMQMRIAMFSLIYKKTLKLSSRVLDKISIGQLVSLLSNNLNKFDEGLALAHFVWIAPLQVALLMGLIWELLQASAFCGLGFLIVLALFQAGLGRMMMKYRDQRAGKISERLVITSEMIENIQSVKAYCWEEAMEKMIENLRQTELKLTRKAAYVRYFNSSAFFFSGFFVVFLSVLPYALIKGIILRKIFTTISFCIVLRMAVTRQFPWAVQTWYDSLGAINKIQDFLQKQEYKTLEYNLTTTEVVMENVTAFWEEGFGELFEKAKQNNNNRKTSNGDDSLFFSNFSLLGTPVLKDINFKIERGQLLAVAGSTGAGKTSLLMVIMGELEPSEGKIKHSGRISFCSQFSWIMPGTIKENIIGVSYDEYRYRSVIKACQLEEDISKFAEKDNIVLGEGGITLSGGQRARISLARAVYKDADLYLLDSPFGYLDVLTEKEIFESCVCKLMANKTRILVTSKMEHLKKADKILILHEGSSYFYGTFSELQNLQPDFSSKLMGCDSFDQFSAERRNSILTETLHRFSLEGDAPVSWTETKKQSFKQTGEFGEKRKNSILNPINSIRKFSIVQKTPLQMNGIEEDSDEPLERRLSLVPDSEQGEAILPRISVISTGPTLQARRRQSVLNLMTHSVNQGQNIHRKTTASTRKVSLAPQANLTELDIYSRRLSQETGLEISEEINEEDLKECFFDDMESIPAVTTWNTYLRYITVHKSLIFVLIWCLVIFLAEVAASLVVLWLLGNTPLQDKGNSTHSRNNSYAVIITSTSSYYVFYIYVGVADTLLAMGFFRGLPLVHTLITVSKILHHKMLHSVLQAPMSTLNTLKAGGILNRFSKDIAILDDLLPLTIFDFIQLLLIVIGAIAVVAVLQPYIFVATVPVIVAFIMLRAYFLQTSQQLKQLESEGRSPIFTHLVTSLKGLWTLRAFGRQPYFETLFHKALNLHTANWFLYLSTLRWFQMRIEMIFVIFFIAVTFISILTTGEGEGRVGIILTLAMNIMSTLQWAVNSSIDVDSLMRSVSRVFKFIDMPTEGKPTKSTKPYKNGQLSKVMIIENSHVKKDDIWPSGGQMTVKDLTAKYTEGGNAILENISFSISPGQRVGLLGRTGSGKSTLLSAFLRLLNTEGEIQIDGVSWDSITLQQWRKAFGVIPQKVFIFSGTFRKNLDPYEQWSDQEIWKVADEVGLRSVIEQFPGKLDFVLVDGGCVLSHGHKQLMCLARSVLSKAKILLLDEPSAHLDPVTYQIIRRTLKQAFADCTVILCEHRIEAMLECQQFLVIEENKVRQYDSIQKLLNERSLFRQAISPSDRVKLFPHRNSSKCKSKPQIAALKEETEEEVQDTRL

The first experiment addresses T1, ΔF508-CFTR (Homo sapiens, UniProt P13569, DEL508-508).
T1 construct: expressed in transfected cells
As to the kind of experiment: Membrane potential optical assay (FRET voltage-sensor dyes, VIPR), identification of potentiator compounds. The format is cell-based. The conditions noted are these: Table 3; assay not given. The gist of the method:
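NIH3T3 mouse fibroblasts stably expressing ΔF508-CFTR, cultured 24 h at 27 °C, were loaded with FRET voltage dyes CC2-DMPE and DiSBAC2(3). Double-addition format: first addition of Cl⁻-free (gluconate) medium with or without compound; membrane-potential change read as fluorescence on VIPR II.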
In the case of `CCCc1ccc(NC(=O)c2c[nH]c3ccccc3c2=O)cc1` [Compound 226, 4-oxo-N-(4-propylphenyl)-1H-quinoline-3-carboxamide], the EC50 was below 10 µM. Regarding `CCOC(=O)Nc1cc(NC(=O)c2c[nH]c3ccccc3c2=O)ccc1CC` [Compound 298, [2-ethyl-5-[(4-oxo-1H-quinolin-3-yl)carbonylamino]phenyl]aminoformic acid ethyl ester], the EC50 is below 10 µM. On the same count and under the same terms, in the case of `COc1ccc(OC)c(-c2ccccc2NC(=O)c2c[nH]c3ccccc3c2=O)c1` [Compound 361, N-[2-(2,5-dimethoxyphenyl)phenyl]-4-oxo-1H-quinoline-3-carboxamide] it was below 10 µM.

Still in this experiment, the particulars now being: Table 3; assay not given; read-out: % Activity (% Efficacy, relative efficacy).
In the case of `CC(C)(C)c1cc(C(C)(C)C)c(NC(=O)c2c[nH]c3ccc(O)cc3c2=O)cc1O` [Compound 702, 6-hydroxy-N-(5-hydroxy-2,4-ditert-butyl-phenyl)-4-oxo-1H-quinoline-3-carboxamide], the Emax was in the range of 25 to 100%.

Consider `CCC(=O)Nc1cccc(NC(=O)c2c[nH]c3ccccc3c2=O)c1` [Compound 81, 4-oxo-N-(3-propionylaminophenyl)-1H-quinoline-3-carboxamide], for which the Emax was below 25%. Turning to `O=C(Nc1cc2[nH]ccc2cc1C(F)(F)F)c1c[nH]c2cccc(O)c2c1=O` [Compound 494, 5-hydroxy-4-oxo-N-[5-(trifluoromethyl)-1H-indol-6-yl]-1H-quinoline-3-carboxamide], the Emax is 25 to 100%. The same measure, in the same setting: in the case of `Cc1cccc2c(=O)c(C(=O)Nc3ccc(C(C)C)cc3C(F)(F)F)c[nH]c12` [Compound 637, N-[4-isopropyl-2-(trifluoromethyl)phenyl]-8-methyl-4-oxo-1H-quinoline-3-carboxamide] it was below 25%; in that of `CCc1cc(Br)ccc1NC(=O)c1c[nH]c2ccccc2c1=O` [Compound 263, N-(4-bromo-2-ethyl-phenyl)-4-oxo-1H-quinoline-3-carboxamide], 25 to 100%. Same read-out and setting: the figure for `CCN(CC)c1ccc(NC(=O)c2c[nH]c3ccccc3c2=O)c(C)c1` [Compound 82, N-(4-diethylamino-2-methyl-phenyl)-4-oxo-1H-quinoline-3-carboxamide] is 25 to 100%. In the case of `Cc1ccc2c(=O)c(C(=O)Nc3cc4[nH]ccc4cc3C(C)(C)C)c[nH]c2c1` [Compound 704, 7-methyl-4-oxo-N-(5-tert-butyl-1H-indol-6-yl)-1H-quinoline-3-carboxamide], the Emax is 25 to 100%. As to `COc1cc(NC(=O)c2c[nH]c3ccccc3c2=O)c(C(F)(F)F)cc1C(C)(C)C` [Compound 421, N-[5-methoxy-4-tert-butyl-2-(trifluoromethyl)phenyl]-4-oxo-1H-quinoline-3-carboxamide], the Emax lay within 25 to 100%.

In the case of `Cc1nc2cc(NC(=O)c3c[nH]c4ccccc4c3=O)ccc2s1` [Compound 44, N-(2-methylbenzothiazol-5-yl)-4-oxo-1H-quinoline-3-carboxamide], the Emax was in the range of 25 to 100%. On the same count and under the same terms, the figure for `Cc1cc(C(C)(C)C)c(O)cc1NC(=O)c1c[nH]c2ccc(F)cc2c1=O` [Compound 683, 6-fluoro-N-(5-hydroxy-2-methyl-4-tert-butyl-phenyl)-4-oxo-1H-quinoline-3-carboxamide] is 25 to 100%; for `CCCc1ccc(NC(=O)c2c[nH]c3ccccc3c2=O)cc1` [Compound 226, 4-oxo-N-(4-propylphenyl)-1H-quinoline-3-carboxamide] it is 25 to 100%; for `Cc1ccc(-c2ccccc2NC(=O)c2c[nH]c3ccccc3c2=O)o1` [Compound 311, N-[2-(5-methyl-2-furyl)phenyl]-4-oxo-1H-quinoline-3-carboxamide] it is 25 to 100%. On to `N#Cc1cc(N2CCCC2)ccc1NC(=O)c1c[nH]c2ccccc2c1=O` [Compound 622, N-(2-cyano-4-pyrrolidin-1-yl-phenyl)-4-oxo-1H-quinoline-3-carboxamide], for which the Emax was in the range of 25 to 100%. Consider `O=C(Nc1ccccc1-c1csc2ccccc12)c1c[nH]c2ccccc2c1=O` [Compound 417, N-(2-(benzo[b]thiophen-3-yl)phenyl)-1,4-dihydro-4-oxoquinoline-3-carboxamide], for which the Emax was in the range of 25 to 100%. Regarding `CCc1cccc(C)c1NC(=O)c1c[nH]c2ccccc2c1=O` [Compound 180, N-(2-ethyl-6-methyl-phenyl)-4-oxo-1H-quinoline-3-carboxamide], the Emax lay within 25 to 100%. On the same count and under the same terms, the figure for `O=C(Nc1cccc2[nH]ccc12)c1c[nH]c2ccccc2c1=O` [Compound 100, N-(1H-indol-4-yl)-4-oxo-1H-quinoline-3-carboxamide] is below 25%. Same read-out and setting: in the case of `COc1ncccc1NC(=O)c1c[nH]c2ccccc2c1=O` [Compound 15, N-(2-methoxy-3-pyridyl)-4-oxo-1H-quinoline-3-carboxamide] it was 25 to 100%; in that of `O=C(Nc1ccccc1-c1ccc(Oc2ccccc2)cc1)c1c[nH]c2ccccc2c1=O` [Compound 410, 4-oxo-N-[2-(4-phenoxyphenyl)phenyl]-1H-quinoline-3-carboxamide], above 100%; in that of `CCOC(=O)Nc1cc(NC(=O)c2c[nH]c3ccccc3c2=O)ccc1CC` [Compound 298, [2-ethyl-5-[(4-oxo-1H-quinolin-3-yl)carbonylamino]phenyl]aminoformic acid ethyl ester], 25 to 100%. In the case of `Cn1cnnc1-c1ccc(NC(=O)c2c[nH]c3ccccc3c2=O)cc1` [Compound 301, N-[4-(4-methyl-4H-1,2,4-triazol-3-yl)phenyl]-4-oxo-1H-quinoline-3-carboxamide], the Emax was below 25%. On the same count and under the same terms, the figure for `CCc1cccc2c(=O)c(C(=O)Nc3ccc(C(C)C)cc3C(F)(F)F)c[nH]c12` [Compound 682, 8-ethyl-N-[4-isopropyl-2-(trifluoromethyl)phenyl]-4-oxo-1H-quinoline-3-carboxamide] is below 25%. As to `CCCc1ccc(NC(=O)c2c[nH]c3ccccc3c2=O)cc1NS(C)(=O)=O` [Compound 340, N-(3-methylsulfonylamino-4-propyl-phenyl)-4-oxo-1H-quinoline-3-carboxamide], the Emax is 25 to 100%. On the same count and under the same terms, in the case of `O=C(Nc1ccc(N2CCOCC2)cc1)c1c[nH]c2ccccc2c1=O` [Compound 457, N-(4-morpholinophenyl)-4-oxo-1H-quinoline-3-carboxamide] it was below 25%; in that of `O=C(Nc1cc2[nH]ccc2cc1F)c1c[nH]c2ccc(F)cc2c1=O` [Compound 254, 6-fluoro-N-(5-fluoro-1H-indol-6-yl)-4-oxo-1H-quinoline-3-carboxamide], 25 to 100%.

As to `CN(C(=O)c1c[nH]c2ccccc2c1=O)c1cc(O)c(C(C)(C)C)cc1C(C)(C)C` [Compound 337, N-(5-hydroxy-2,4-ditert-butyl-phenyl)-N-methyl-4-oxo-1H-quinoline-3-carboxamide], the Emax was in the range of 25 to 100%. Consider `O=C(Nc1ccc(N2CCOCC2)nc1)c1c[nH]c2ccccc2c1=O` [Compound 400, N-(6-morpholino-3-pyridyl)-4-oxo-1H-quinoline-3-carboxamide], for which the Emax is below 25%. For the compound `O=C(Nc1ccccc1-n1cccc1)c1c[nH]c2ccccc2c1=O` [Compound 293, 4-oxo-N-[2-(1H-pyrrol-1-yl)phenyl]-1H-quinoline-3-carboxamide], the Emax was above 100%. With `COC(=O)Nc1ccc(C(C)C)c(NC(=O)c2c[nH]c3ccccc3c2=O)c1` [Compound 239, [4-isopropyl-3-[(4-oxo-1H-quinolin-3-yl)carbonylamino]phenyl]aminoformic acid methyl ester], the Emax lay in the range of 25 to 100%. Same read-out and setting: the figure for `O=C(Nc1ccc(N2CCCCC2)cc1C(F)(F)F)c1c[nH]c2ccccc2c1=O` [Compound 686, 4-oxo-N-[4-(1-piperidyl)-2-(trifluoromethyl)phenyl]-1H-quinoline-3-carboxamide] is 25 to 100%; for `COc1ccc(OC)c(-c2ccccc2NC(=O)c2c[nH]c3ccccc3c2=O)c1` [Compound 361, N-[2-(2,5-dimethoxyphenyl)phenyl]-4-oxo-1H-quinoline-3-carboxamide] it is above 100%; for `O=C(Nc1ccccc1-c1ccc(Cl)cc1)c1c[nH]c2ccccc2c1=O` [Compound 424, N-[2-(4-chlorophenyl)phenyl]-4-oxo-1H-quinoline-3-carboxamide] it is 25 to 100%. Still for that read-out and setting: the figure for `Cc1cccc2[nH]cc(C(=O)Nc3ccc(N4[C@H](C)CC[C@@H]4C)cc3C(F)(F)F)c(=O)c12` [Compound 592, N-(4-((2R,5S)-2,5-dimethylpyrrolidin-1-yl)-2-(trifluoromethyl)phenyl)-5-methyl-4-oxo-1,4-dihydroquinoline-3-carboxamide] is 25 to 100%; for `COc1cc2[nH]cc(C(=O)Nc3cc(O)c(C(C)(C)C)cc3C(C)(C)C)c(=O)c2cc1F` [Compound 617, 6-fluoro-N-(5-hydroxy-2,4-ditert-butyl-phenyl)-7-methoxy-4-oxo-1H-quinoline-3-carboxamide] it is above 100%.

Turning to `COc1cccc(OC)c1-c1ccccc1NC(=O)c1c[nH]c2ccccc2c1=O` [Compound 49, N-[2-(2,6-dimethoxyphenyl)phenyl]-4-oxo-1H-quinoline-3-carboxamide], the Emax is 25 to 100%. The same measure, in the same setting: the figure for `CC(C)(C)OC(=O)[C@H]1CCCN1c1ccc(NC(=O)c2c[nH]c3ccccc3c2=O)c(C(F)(F)F)c1` [Compound 540, (R)-tert-butyl 1-(4-(4-oxo-1,4-dihydroquinoline-3-carboxamido)-3-(trifluoromethyl)phenyl)pyrrolidine-2-carboxylate] is above 100%; for `CC(C)(C)OC(=O)N1CCCc2ccc(NC(=O)c3c[nH]c4ccccc4c3=O)cc21` [Compound 183, 7-[(4-oxo-1H-quinolin-3-yl)carbonylamino]-1,2,3,4-tetrahydroquinoline-1-carboxylic acid tert-butyl ester] it is 25 to 100%.

As for `CC(=O)Nc1cc(NC(=O)c2c[nH]c3ccccc3c2=O)ccc1C` [Compound 248, N-(3-Acetylamino-4-methyl-phenyl)-4-oxo-1H-quinoline-3-carboxamide], the Emax was 25 to 100%.

Turning to `Cc1cc(C(C)(C)C)c(O)cc1NC(=O)c1c[nH]c2cccc(O)c2c1=O` [Compound 588, 5-hydroxy-N-(5-hydroxy-2-methyl-4-tert-butyl-phenyl)-4-oxo-1H-quinoline-3-carboxamide], the Emax fell in the range of 25 to 100%. Same read-out and setting: the figure for `O=C(Nc1cccc2ccccc12)c1c[nH]c2ccccc2c1=O` [Compound 350, N-(1-naphthyl)-4-oxo-1H-quinoline-3-carboxamide] is 25 to 100%; for `O=C(Nc1ccc2[nH]c(=O)[nH]c2c1)c1c[nH]c2ccccc2c1=O` [Compound 64, 4-oxo-N-(2-oxo-1,3-dihydrobenzoimidazol-5-yl)-1H-quinoline-3-carboxamide] it is below 25%.

Usually EC50 stands for the midpoint of the concentration-response curve.
